Source: publication PMC9571063 (Molecules, 2022)

Experiments:
MAP3K3 = biological target: T1, MAP3K3 (Homo sapiens, UniProt Q99759); assay: KINOMEscan; format: binding; conditions: read-out: Percent Control
T1 construct: purchased Eurofins DiscoverX KINOMEscan (scanMAX 468)

DAPK1 = biological target: T2, DAPK1 (Homo sapiens, UniProt P53355); assay: KINOMEscan; format: binding; conditions: read-out: Percent Control
T2 construct: purchased Eurofins DiscoverX KINOMEscan (scanMAX 468)

LRRK2(G2019S) = biological target: T3, LRRK2(G2019S) (Homo sapiens, UniProt Q5S007, G2019S); assay: KINOMEscan; format: binding; conditions: read-out: Percent Control
T3 construct: purchased Eurofins DiscoverX KINOMEscan (scanMAX 468)

PHKG1 = biological target: T4, PHKG1 (Homo sapiens, UniProt Q16816); assay: KINOMEscan; format: binding; conditions: read-out: Percent Control
T4 construct: purchased Eurofins DiscoverX KINOMEscan (scanMAX 468)

ZAP70 = biological target: T5, ZAP70 (Homo sapiens, UniProt P43403); assay: KINOMEscan; format: binding; conditions: read-out: Percent Control
T5 construct: purchased Eurofins (KINOMEscan, DiscoverX)

YES = biological target: T6, YES (Homo sapiens, UniProt P07947); assay: KINOMEscan; format: binding; conditions: read-out: Percent Control
T6 construct: purchased Eurofins (KINOMEscan, DiscoverX)

EPHA6 = biological target: T7, EPHA6 (Homo sapiens, UniProt Q9UF33); assay: KINOMEscan; format: binding; conditions: read-out: Percent Control
T7 construct: purchased Eurofins DiscoverX KINOMEscan (scanMAX 468)

MYLK = biological target: T8, MYLK (Homo sapiens, UniProt Q15746); assay: KINOMEscan; format: binding; conditions: read-out: Percent Control
T8 construct: purchased Eurofins DiscoverX KINOMEscan (scanMAX 468)

EGFR(L747-T751del,Sins) = assay: KINOMEscan; format: binding, human; conditions: 1 μM
PRKCH = biological target: T9, PRKCH (Homo sapiens, UniProt P24723); assay: KINOMEscan; format: binding; conditions: read-out: Percent Control
T9 construct: purchased Eurofins DiscoverX KINOMEscan (scanMAX 468)
T9 sequence (P24723 whole entry): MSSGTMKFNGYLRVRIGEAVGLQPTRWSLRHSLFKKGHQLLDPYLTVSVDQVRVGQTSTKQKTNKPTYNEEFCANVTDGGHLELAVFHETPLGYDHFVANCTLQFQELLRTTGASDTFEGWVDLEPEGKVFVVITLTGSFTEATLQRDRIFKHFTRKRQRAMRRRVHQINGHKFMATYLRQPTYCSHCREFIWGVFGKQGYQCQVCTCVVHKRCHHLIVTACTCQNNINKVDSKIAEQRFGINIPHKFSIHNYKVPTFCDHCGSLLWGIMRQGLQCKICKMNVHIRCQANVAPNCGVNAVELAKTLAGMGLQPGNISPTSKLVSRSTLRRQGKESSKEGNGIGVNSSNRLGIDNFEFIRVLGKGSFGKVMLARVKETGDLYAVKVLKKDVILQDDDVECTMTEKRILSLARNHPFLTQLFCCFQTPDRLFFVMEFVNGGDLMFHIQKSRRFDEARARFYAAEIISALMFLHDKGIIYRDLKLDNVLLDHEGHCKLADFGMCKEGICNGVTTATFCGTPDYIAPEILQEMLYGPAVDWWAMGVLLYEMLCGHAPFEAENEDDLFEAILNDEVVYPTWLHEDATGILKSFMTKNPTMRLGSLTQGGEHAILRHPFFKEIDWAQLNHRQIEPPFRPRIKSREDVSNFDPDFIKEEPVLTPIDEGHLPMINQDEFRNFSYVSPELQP

CDKL3 = biological target: T10, CDKL3 (Homo sapiens, UniProt Q8IVW4); assay: KINOMEscan; format: binding; conditions: read-out: Percent Control
T10 construct: purchased Eurofins DiscoverX KINOMEscan (scanMAX 468)

HIPK4 = biological target: T11, HIPK4 (Homo sapiens, UniProt Q8NE63); assay: KINOMEscan; format: binding; conditions: read-out: Percent Control
T11 construct: purchased Eurofins DiscoverX KINOMEscan (scanMAX 468)

NEK10 = biological target: T12, NEK10 (Homo sapiens, UniProt Q6ZWH5); assay: KINOMEscan; format: binding; conditions: read-out: Percent Control
T12 construct: purchased Eurofins DiscoverX KINOMEscan (scanMAX 468)

YANK1 = biological target: T13, YANK1 (Homo sapiens, UniProt Q8WU08); assay: KINOMEscan; format: binding; conditions: read-out: Percent Control
T13 construct: purchased Eurofins (KINOMEscan, DiscoverX)

PHKG2 = biological target: T14, PHKG2 (Homo sapiens, UniProt P15735); assay: KINOMEscan; format: binding; conditions: read-out: Percent Control
T14 construct: purchased Eurofins DiscoverX KINOMEscan (scanMAX 468)
T14 sequence (P15735 whole entry): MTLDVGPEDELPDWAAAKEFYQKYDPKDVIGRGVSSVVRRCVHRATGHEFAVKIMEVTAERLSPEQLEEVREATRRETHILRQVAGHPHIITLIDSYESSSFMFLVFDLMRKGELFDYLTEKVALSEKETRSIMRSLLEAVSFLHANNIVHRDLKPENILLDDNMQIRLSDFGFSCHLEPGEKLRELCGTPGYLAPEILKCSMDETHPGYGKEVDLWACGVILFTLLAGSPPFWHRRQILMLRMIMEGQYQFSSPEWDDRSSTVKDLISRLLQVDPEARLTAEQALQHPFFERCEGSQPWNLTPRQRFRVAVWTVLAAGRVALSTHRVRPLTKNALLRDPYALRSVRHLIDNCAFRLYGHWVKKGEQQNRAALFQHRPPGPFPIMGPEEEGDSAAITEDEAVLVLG

MAP3K1 = biological target: T15, MAP3K1 (Homo sapiens, UniProt Q13233); assay: KINOMEscan; format: binding; conditions: read-out: Percent Control
T15 construct: purchased Eurofins DiscoverX KINOMEscan (scanMAX 468)

TSSK1B = biological target: T16, TSSK1B (Homo sapiens, UniProt Q9BXA7); assay: KINOMEscan; format: binding; conditions: read-out: Percent Control
T16 construct: purchased Eurofins DiscoverX KINOMEscan (scanMAX 468)

EGFR(S752-I759del) = biological target: T17, EGFR(S752-I759del) (Homo sapiens, UniProt P00533, DEL752-759); assay: KINOMEscan; format: binding; conditions: read-out: Percent Control
T17 construct: purchased Eurofins DiscoverX KINOMEscan (scanMAX 468)

DRAK1 = biological target: T18, DRAK1 (Homo sapiens, UniProt Q9UEE5); assay: KINOMEscan; format: binding; conditions: read-out: Percent Control
T18 construct: purchased Eurofins DiscoverX KINOMEscan (scanMAX 468)

AMPK-alpha1 = biological target: T19, AMPK-alpha1 (Homo sapiens, UniProt Q13131); assay: KINOMEscan; format: binding; conditions: read-out: Percent Control
T19 construct: purchased Eurofins DiscoverX KINOMEscan (scanMAX 468)

BRSK1 = biological target: T20, BRSK1 (Homo sapiens, UniProt Q8TDC3); assay: KINOMEscan; format: binding; conditions: read-out: Percent Control
T20 construct: purchased Eurofins DiscoverX KINOMEscan (scanMAX 468)

INSR = biological target: T21, INSR (Homo sapiens, UniProt P06213); assay: KINOMEscan; format: binding; conditions: read-out: Percent Control
T21 construct: purchased Eurofins DiscoverX KINOMEscan (scanMAX 468)

TESK1 = biological target: T22, TESK1 (Homo sapiens, UniProt Q15569); assay: KINOMEscan; format: binding; conditions: read-out: Percent Control
T22 construct: purchased Eurofins DiscoverX KINOMEscan (scanMAX 468)
T22 sequence (Q15569 whole entry): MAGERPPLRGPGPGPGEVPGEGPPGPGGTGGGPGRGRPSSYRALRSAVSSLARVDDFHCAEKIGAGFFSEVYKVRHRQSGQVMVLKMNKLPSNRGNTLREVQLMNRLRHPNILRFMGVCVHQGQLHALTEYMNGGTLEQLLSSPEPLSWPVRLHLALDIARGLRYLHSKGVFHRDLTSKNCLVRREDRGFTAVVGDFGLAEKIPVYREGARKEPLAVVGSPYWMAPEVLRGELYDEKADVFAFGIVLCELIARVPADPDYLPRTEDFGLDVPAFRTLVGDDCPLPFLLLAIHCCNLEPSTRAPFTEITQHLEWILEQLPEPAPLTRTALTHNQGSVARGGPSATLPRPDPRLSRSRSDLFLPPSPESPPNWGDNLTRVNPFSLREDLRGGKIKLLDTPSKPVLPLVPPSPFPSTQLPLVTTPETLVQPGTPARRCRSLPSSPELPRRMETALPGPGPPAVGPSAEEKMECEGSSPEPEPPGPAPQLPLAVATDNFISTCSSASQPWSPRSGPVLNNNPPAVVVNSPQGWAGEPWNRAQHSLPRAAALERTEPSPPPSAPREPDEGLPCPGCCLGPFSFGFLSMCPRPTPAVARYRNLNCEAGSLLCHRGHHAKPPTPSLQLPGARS

BLK = biological target: T23, BLK (Homo sapiens, UniProt P51451); assay: KINOMEscan; format: binding; conditions: read-out: Percent Control
T23 construct: purchased Eurofins DiscoverX KINOMEscan (scanMAX 468)

PIK3CA(E542K) = biological target: T24, PIK3CA(E542K) (Homo sapiens, UniProt P42336, E542K); assay: KINOMEscan; format: binding; conditions: read-out: Percent Control
T24 construct: purchased Eurofins DiscoverX KINOMEscan (scanMAX 468)
T24 sequence (P42336 whole entry E542K): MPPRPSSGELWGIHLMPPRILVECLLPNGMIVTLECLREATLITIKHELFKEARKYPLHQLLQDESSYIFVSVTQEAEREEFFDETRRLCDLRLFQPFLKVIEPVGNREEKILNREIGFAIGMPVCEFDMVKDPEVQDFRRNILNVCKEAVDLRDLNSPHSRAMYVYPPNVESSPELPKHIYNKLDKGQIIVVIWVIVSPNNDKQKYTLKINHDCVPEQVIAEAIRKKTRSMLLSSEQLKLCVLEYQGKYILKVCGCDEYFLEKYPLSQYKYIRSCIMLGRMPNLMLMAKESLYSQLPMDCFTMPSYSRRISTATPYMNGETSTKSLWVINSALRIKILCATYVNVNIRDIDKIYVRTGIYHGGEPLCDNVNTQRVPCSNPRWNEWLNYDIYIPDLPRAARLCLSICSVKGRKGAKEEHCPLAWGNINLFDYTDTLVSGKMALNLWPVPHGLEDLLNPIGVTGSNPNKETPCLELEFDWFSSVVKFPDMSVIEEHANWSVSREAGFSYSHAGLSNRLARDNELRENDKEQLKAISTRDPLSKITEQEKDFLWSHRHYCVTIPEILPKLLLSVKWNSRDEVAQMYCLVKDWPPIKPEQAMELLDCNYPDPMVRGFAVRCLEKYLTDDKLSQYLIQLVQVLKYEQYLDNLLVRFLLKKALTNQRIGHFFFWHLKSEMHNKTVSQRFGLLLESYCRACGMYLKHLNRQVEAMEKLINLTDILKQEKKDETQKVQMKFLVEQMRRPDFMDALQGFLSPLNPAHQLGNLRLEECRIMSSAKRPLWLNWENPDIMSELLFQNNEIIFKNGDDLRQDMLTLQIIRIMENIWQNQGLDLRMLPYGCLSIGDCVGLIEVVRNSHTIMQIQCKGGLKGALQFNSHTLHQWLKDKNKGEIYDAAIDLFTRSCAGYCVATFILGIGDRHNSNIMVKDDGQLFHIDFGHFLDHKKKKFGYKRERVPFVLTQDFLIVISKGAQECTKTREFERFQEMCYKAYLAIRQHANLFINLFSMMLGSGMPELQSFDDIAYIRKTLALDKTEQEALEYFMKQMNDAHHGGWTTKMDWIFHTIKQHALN

PAK1 = biological target: T25, PAK1 (Homo sapiens, UniProt Q13153); assay: KINOMEscan; format: binding; conditions: read-out: Percent Control
T25 construct: purchased Eurofins DiscoverX KINOMEscan (scanMAX 468)

STK39 = biological target: T26, STK39 (Homo sapiens, UniProt Q9UEW8); assay: KINOMEscan; format: binding; conditions: read-out: Percent Control
T26 construct: purchased Eurofins DiscoverX KINOMEscan (scanMAX 468)

EPHB3 = biological target: T27, EPHB3 (Homo sapiens, UniProt P54753); assay: KINOMEscan; format: binding; conditions: read-out: Percent Control
T27 construct: purchased Eurofins DiscoverX KINOMEscan (scanMAX 468)

AURKA = biological target: T28, AURKA (Homo sapiens, UniProt O14965); assay: KINOMEscan; format: binding; conditions: read-out: Percent Control
T28 construct: purchased Eurofins DiscoverX KINOMEscan (scanMAX 468)

MDA-MB-231 = system: MDA-MB-231; design: method as in ref 14 (a number printed in a supplementary file, which may have a reference list of its own: not looked up in the article's list); conditions: DB18[a], footnote not given; read-out: Cytotoxic studies IC50 MDA-MB-231; cited from earlier work
IKK-epsilon = biological target: T29, IKK-epsilon (Homo sapiens, UniProt Q14164); assay: KINOMEscan; format: binding; conditions: read-out: Percent Control
T29 construct: purchased Eurofins DiscoverX KINOMEscan (scanMAX 468)

LIMK1 = biological target: T30, LIMK1 (Homo sapiens, UniProt P53667); assay: KINOMEscan; format: binding; conditions: read-out: Percent Control
T30 construct: purchased Eurofins DiscoverX KINOMEscan (scanMAX 468)
T30 sequence (P53667 whole entry): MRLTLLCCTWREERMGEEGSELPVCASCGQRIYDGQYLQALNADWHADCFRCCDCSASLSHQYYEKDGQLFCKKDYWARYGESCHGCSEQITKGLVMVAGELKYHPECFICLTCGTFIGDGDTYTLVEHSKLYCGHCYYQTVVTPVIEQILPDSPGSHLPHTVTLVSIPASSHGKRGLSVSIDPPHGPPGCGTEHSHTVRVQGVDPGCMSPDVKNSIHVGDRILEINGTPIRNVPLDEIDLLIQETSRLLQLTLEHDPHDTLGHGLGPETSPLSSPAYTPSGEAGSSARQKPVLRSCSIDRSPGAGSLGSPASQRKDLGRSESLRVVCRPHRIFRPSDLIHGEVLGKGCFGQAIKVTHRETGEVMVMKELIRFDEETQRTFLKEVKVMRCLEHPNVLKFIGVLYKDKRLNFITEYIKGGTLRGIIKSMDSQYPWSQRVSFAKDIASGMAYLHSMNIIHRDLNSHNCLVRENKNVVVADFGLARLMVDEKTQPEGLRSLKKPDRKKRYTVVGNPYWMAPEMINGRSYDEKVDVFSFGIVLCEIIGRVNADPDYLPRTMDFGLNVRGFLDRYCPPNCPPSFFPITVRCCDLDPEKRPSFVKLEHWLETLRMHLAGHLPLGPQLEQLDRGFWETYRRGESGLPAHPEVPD

MUSK = biological target: T31, MUSK (Homo sapiens, UniProt O15146); assay: KINOMEscan; format: binding; conditions: read-out: Percent Control
T31 construct: purchased Eurofins DiscoverX KINOMEscan (scanMAX 468)

GRK7 = biological target: T32, GRK7 (Homo sapiens, UniProt Q8WTQ7); assay: KINOMEscan; format: binding; conditions: read-out: Percent Control
T32 construct: purchased Eurofins DiscoverX KINOMEscan (scanMAX 468)

p38-gamma = biological target: T33, p38-gamma (Homo sapiens, UniProt P53778); assay: KINOMEscan; format: binding; conditions: read-out: Percent Control
T33 construct: purchased Eurofins DiscoverX KINOMEscan (scanMAX 468)

IGF1R = biological target: T34, IGF1R (Homo sapiens, UniProt P08069); assay: KINOMEscan; format: binding; conditions: read-out: Percent Control
T34 construct: purchased Eurofins DiscoverX KINOMEscan (scanMAX 468)

STK36 = biological target: T35, STK36 (Homo sapiens, UniProt Q9NRP7); assay: KINOMEscan; format: binding; conditions: read-out: Percent Control
T35 construct: purchased Eurofins DiscoverX KINOMEscan (scanMAX 468)
T35 sequence (Q9NRP7 whole entry): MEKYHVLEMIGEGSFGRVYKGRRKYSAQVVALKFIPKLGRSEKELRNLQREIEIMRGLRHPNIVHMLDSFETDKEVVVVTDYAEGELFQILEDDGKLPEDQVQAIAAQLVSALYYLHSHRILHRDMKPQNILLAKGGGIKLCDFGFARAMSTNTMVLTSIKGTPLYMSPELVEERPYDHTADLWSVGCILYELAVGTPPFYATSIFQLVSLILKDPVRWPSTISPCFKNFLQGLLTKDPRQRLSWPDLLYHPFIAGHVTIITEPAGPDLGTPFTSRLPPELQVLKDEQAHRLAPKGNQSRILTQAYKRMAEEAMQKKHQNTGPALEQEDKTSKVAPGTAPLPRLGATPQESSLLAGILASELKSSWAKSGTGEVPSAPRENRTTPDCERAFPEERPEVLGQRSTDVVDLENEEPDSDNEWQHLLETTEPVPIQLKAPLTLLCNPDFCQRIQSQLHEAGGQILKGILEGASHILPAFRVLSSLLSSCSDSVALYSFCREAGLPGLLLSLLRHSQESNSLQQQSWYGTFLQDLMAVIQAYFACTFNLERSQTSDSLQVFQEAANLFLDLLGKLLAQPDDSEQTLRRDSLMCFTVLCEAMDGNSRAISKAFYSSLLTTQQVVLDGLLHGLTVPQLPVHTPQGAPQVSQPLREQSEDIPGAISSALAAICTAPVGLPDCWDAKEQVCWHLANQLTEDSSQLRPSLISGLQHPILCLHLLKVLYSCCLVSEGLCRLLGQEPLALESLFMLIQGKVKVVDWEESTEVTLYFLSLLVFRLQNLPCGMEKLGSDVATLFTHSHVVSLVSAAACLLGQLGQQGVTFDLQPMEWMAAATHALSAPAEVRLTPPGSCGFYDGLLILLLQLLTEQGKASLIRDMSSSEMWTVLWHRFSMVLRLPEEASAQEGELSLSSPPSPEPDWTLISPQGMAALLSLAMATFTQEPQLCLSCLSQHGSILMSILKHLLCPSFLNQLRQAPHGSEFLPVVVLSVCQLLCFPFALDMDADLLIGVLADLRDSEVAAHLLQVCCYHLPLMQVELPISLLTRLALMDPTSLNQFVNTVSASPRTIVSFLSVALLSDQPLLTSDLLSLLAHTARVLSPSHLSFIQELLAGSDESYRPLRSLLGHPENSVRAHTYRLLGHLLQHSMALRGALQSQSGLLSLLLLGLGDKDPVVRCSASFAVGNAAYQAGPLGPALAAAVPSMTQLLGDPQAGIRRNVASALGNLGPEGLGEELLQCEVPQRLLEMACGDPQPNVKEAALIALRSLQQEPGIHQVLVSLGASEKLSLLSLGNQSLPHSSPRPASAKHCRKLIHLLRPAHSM

ALK(C1156Y) = biological target: T36, ALK(C1156Y) (Homo sapiens, UniProt Q9UM73, C1156Y); assay: KINOMEscan; format: binding; conditions: read-out: Percent Control
T36 construct: purchased Eurofins DiscoverX KINOMEscan (scanMAX 468)

PIK3CA(E545A) = biological target: T37, PIK3CA(E545A) (Homo sapiens, UniProt P42336, E545A); assay: KINOMEscan; format: binding; conditions: read-out: Percent Control
T37 construct: purchased Eurofins DiscoverX KINOMEscan (scanMAX 468)
T37 sequence (P42336 whole entry E545A): as the sequence (P42336 whole entry E542K) above, with K542E, E545A counted along it

PIP5K1A = biological target: T38, PIP5K1A (Homo sapiens, UniProt Q99755); assay: KINOMEscan; format: binding; conditions: read-out: Percent Control
T38 construct: purchased Eurofins DiscoverX KINOMEscan (scanMAX 468)

WNK4 = biological target: T39, WNK4 (Homo sapiens, UniProt Q96J92); assay: KINOMEscan; format: binding; conditions: read-out: Percent Control
T39 construct: purchased Eurofins (KINOMEscan, DiscoverX)

ARK5 = biological target: T40, ARK5 (Homo sapiens, UniProt O60285); assay: KINOMEscan; format: binding; conditions: read-out: Percent Control
T40 construct: purchased Eurofins DiscoverX KINOMEscan (scanMAX 468)

SIK = biological target: T41, SIK (Homo sapiens, UniProt P57059); assay: KINOMEscan; format: binding; conditions: read-out: Percent Control
T41 construct: purchased Eurofins DiscoverX KINOMEscan (scanMAX 468)

In the case of `Cc1ccc(-n2cc(COc3cccc4cnc(Nc5cccc(Cl)c5)nc34)nn2)c([N+](=O)[O-])c1` [DB18], the remaining binding at 1 µM (MAP3K3) is reported as 99%, the remaining binding at 1 µM (DAPK1) is reported as 100% and the remaining binding at 1 µM (LRRK2(G2019S)) is reported as 95%. The remaining binding at 1 µM (PHKG1) was 100%, the remaining binding at 1 µM (ZAP70) was 100% and the remaining binding at 1 µM (YES) was 100%. The remaining binding at 1 µM (EPHA6) was 100%, the remaining binding at 1 µM (MYLK) was 92% and the “Percent Control” value (EGFR(L747-T751del,Sins)) was 100 % Ctrl. It also gave a remaining binding at 1 µM (PRKCH) of 100%, a remaining binding at 1 µM (CDKL3) of 94% and a remaining binding at 1 µM (HIPK4) of 17%. It also gave a remaining binding at 1 µM (NEK10) of 100%, a remaining binding at 1 µM (YANK1) of 100% and a remaining binding at 1 µM (PHKG2) of 95%. The remaining binding at 1 µM (MAP3K1) was 98%, the remaining binding at 1 µM (TSSK1B) was 100% and the remaining binding at 1 µM (EGFR(S752-I759del)) was 91%. For the same compound, the remaining binding at 1 µM (DRAK1) was 100%, the remaining binding at 1 µM (AMPK-alpha1) was 94% and the remaining binding at 1 µM (BRSK1) was 100%. The remaining binding at 1 µM (INSR) was 93%, the remaining binding at 1 µM (TESK1) was 95% and the remaining binding at 1 µM (BLK) was 100%. For the same compound, the remaining binding at 1 µM (PIK3CA(E542K)) was 80%, the remaining binding at 1 µM (PAK1) was 100% and the remaining binding at 1 µM (STK39) was 97%. For the same compound, the remaining binding at 1 µM (EPHB3) was 100%, the remaining binding at 1 µM (AURKA) was 100% and the IC50 (MDA-MB-231) was greater than 25 µM. For the same compound, the remaining binding at 1 µM (IKK-epsilon) was 96%, the remaining binding at 1 µM (LIMK1) was 100% and the remaining binding at 1 µM (MUSK) was 100%. The remaining binding at 1 µM (GRK7) was 100%, the remaining binding at 1 µM (p38-gamma) was 100% and the remaining binding at 1 µM (IGF1R) was 100%. The remaining binding at 1 µM (STK36) was 100%, the remaining binding at 1 µM (ALK(C1156Y)) was 99% and the remaining binding at 1 µM (PIK3CA(E545A)) was 100%. The remaining binding at 1 µM (PIP5K1A) was 100%, the remaining binding at 1 µM (WNK4) was 100% and the remaining binding at 1 µM (ARK5) was 100%. It also gave a remaining binding at 1 µM (SIK) of 95%.
